These results are taken from US20040131686A1, “Composition and method for treatment of bacterial vaginal infections” (priority 2003, published 2004).

Counter-ions that a name gives are not always drawn.

Test [1] deals with Staphylococcus aureus (ATCC #6538). The test can be described thus: Zone of inhibition on agar plate inoculated with Staphylococcus aureus. It counts as cell-based. How it is done: About 1 grams of each gelled composition was deposited on an agar plate that was previously inoculated with E. coli (ATCC #11229), a Gram-negative bacterium, and the plates were incubated for about 20 to about 28 hours at a temperature of about 35 to about 39° C. Antibacterial activity was evaluated by measuring the diameter of the zone of inhibition (i.e., a clear zone with no bacterial colonies present, measured in millimeters) around the deposited gel.
Similar plates were prepared wherein the inoculant was Staphylococcus aureus (ATCC #6538), a Gram-positive bacterium.
(§1) A commercially available vaginal cream formulation of benzydamine hydrochloride, TANTUM ROSA® cream, available from Angelini Pharmaceuticals, Rome, Italy was also evaluated, for comparison. According to the manufacturer's product literature TANTUM ROSA® cream contains about 0.5% benzydamine hydrochloride in a cream base containing propylene glycol, saturated triglycerides, ceteth 20, hydroxyethyl cellulose, sodium citrate dihydrate, citric acid monohydrate, benzoic acid, and purified water. In addition, a simple aqueous solution containing 0.5% by weight of benzydamine hydrochloride in deionized water was tested as a positive control. All materials were tested in triplicate.

A further test has as its system E. coli (ATCC #11229). In words: Zone of inhibition on agar plate inoculated with E. coli. Format: cell-based. As for the experimental part:
as §1, with “Antibacterial activity was evaluated by measuring the diameter of the zone of inhibition (i.e., a clear zone with no bacterial colonies present, measured in millimeters) around the deposited gel. A commercially” for “A commercially”, “available from […] Pharmaceuticals, Rome,” for “available from Angelini Pharmaceuticals, Rome,”

Setting [2] is: about 1 gram of composition on inoculated agar plate, about 20 to 28 hours, about 35 to 39° C., triplicate.

For `CN(C)CCCOc1nn(Cc2ccccc2)c2ccccc12` [B-HCl, Benzydamine hydrochloride], the “Staphylococcus clear zone (diameter of zone of inhibition)” value in test [1] (setting [2]) is given as 14 mm. Besides, the “Antibacterial activity against Gram-positive bacteria (Staphylococcus aureus), in words” value in test [1] (inhibition test on agar plate) is listed as “effective”. Further, in the test with E. coli (ATCC #11229) (setting [2]), the “E. coli clear zone (diameter of zone of inhibition)” value turned out to be 12 mm. In addition, in the test with E. coli (ATCC #11229) (inhibition test on agar plate), the “Antibacterial activity against Gram-negative bacteria (E. coli), in words” value is given as “effective”.
